Values joined by “and” are separate entries in the source; they are usually repeats but may differ in a detail not shown here. Identical values can stand only once.
Assay: Plasma pharmacokinetics of vorinostat after oral administration (non-compartmental analysis)
Source text: The assays were validated according to the common FDA and EMA guidelines on bioanalytical method validation.

[1] = 530 mg/m2/d oral, plasma, maximum of 3 values
[2] = 530 mg/m2/d oral, plasma, minimum of 3 values

**Q.** What does the source list for `O=C(CCCCCCC(=O)Nc1ccccc1)NO` [vorinostat]?
**A.** Clearance, Maximum [1]: 678 L/h; Cmax, Maximum [1]: 629 ng/mL; Clearance, Minimum [2]: 241 L/h; Cmax, Minimum [2]: 451 ng/mL; Vz, Minimum [2]: 508 L; t1/2 (dose level 130 mg/m2/d, mean): 2.16 h; t1/2 (dose level 130 mg/m2/d, median): 2.16 h; t1/2 (dose level 180 mg/m2/d, mean): 2.22 h; t1/2 (dose level 330 mg/m2/d, mean): 2.13 h; AUC(0-t) (human, in vivo, 130 mg/m2): 1140 ng·h/mL; Clearance (human, in vivo, 130 mg/m2): 167 L/h; Vz (human, in vivo, 130 mg/m2): 563 L; AUC(0-t) (human, in vivo, 130 mg/m2, AUClast): 4.32 µM·h and 970 ng·h/mL; Clearance (human, in vivo, 130 mg/m2, Clearance): 108 L/h; Cmax (human, in vivo, 130 mg/m2, Cmax): 1.02 µM and 269 ng/mL; Vd (human, in vivo, 130 mg/m2, Vz): 336 L; Clearance (human, in vivo, 180 mg/m2): 225 L/h; Tmax (human, in vivo, 180 mg/m2): 2.39 h; Vz (human, in vivo, 180 mg/m2): 681 L; t1/2 (human, in vivo, 180 mg/m2): 1.93 h; AUC(0-t) (human, in vivo, 180 mg/m2, AUClast): 3.75 µM·h and 992 ng·h/mL; Clearance (human, in vivo, 180 mg/m2, Clearance): 182 L/h; Cmax (human, in vivo, 180 mg/m2, Cmax): 1.06 µM and 281 ng/mL; Tmax (human, in vivo, 180 mg/m2, Tmax): 1.5 h; Vd (human, in vivo, 180 mg/m2, Vz): 490 L; Clearance (human, in vivo, 214 mg/m2): 399 L/h; AUC(0-t) (human, in vivo, 214 mg/m2, AUClast): 2.52 µM·h and 666 ng·h/mL; Clearance (human, in vivo, 214 mg/m2, Clearance): 399 L/h; Cmax (human, in vivo, 214 mg/m2, Cmax): 1.29 µM and 341 ng/mL; half-life (human, in vivo, 214 mg/m2, t1/2): 1.12 h; AUCtotal (human, in vivo, 230 mg/m2): 1310 ng·h/mL; Clearance (human, in vivo, 230 mg/m2): 257 L/h; Vz (human, in vivo, 230 mg/m2): 640 L; AUC(0-t) (human, in vivo, 230 mg/m2, AUClast): 4.89 µM·h and 1290 ng·h/mL; Clearance (human, in vivo, 230 mg/m2, Clearance): 221 L/h; Cmax (human, in vivo, 230 mg/m2, Cmax): 1.44 µM and 380 ng/mL; Tmax (human, in vivo, 230 mg/m2, Tmax): 1.5 h; Vd (human, in vivo, 230 mg/m2, Vz): 532 L; half-life (human, in vivo, 230 mg/m2, t1/2): 1.63 h; Clearance (human, in vivo, 250 mg/m2): 189 L/h; Tmax (human, in vivo, 250 mg/m2): 1.75 h; t1/2 (human, in vivo, 250 mg/m2): 1.48 h; AUC(0-t) (human, in vivo, 250 mg/m2, AUClast): 5.77 µM·h and 1520 ng·h/mL; Clearance (human, in vivo, 250 mg/m2, Clearance): 189 L/h; Tmax (human, in vivo, 250 mg/m2, Tmax): 1.75 h; Vd (human, in vivo, 250 mg/m2, Vz): 398 L; half-life (human, in vivo, 250 mg/m2, t1/2): 1.48 h; AUC(0-t) (human, in vivo, 280 mg/m2): 4.96 µM·h; Clearance (human, in vivo, 280 mg/m2): 195 L/h; Tmax (human, in vivo, 280 mg/m2): 2.09 h; t1/2 (human, in vivo, 280 mg/m2): 1.83 h; AUC(0-t) (human, in vivo, 280 mg/m2, AUClast): 1310 ng·h/mL and 6.33 µM·h; Clearance (human, in vivo, 280 mg/m2, Clearance): 207 L/h; Tmax (human, in vivo, 280 mg/m2, Tmax): 1.5 h; half-life (human, in vivo, 280 mg/m2, t1/2): 1.5 h; Clearance (human, in vivo, 330 mg/m2): 149 L/h; Tmax (human, in vivo, 330 mg/m2): 2.00 h; Vz (human, in vivo, 330 mg/m2): 427 L; AUC(0-t) (human, in vivo, 330 mg/m2, AUClast): 8.06 µM·h and 2130 ng·h/mL; Clearance (human, in vivo, 330 mg/m2, Clearance): 126 L/h; Cmax (human, in vivo, 330 mg/m2, Cmax): 1.83 µM and 483 ng/mL; Tmax (human, in vivo, 330 mg/m2, Tmax): 2.5 h; Vd (human, in vivo, 330 mg/m2, Vz): 429 L; half-life (human, in vivo, 330 mg/m2, t1/2): 1.89 h; AUC(0-t) (human, in vivo, 380 mg/m2, AUClast): 14.2 µM·h and 3750 ng·h/mL; Cmax (human, in vivo, 380 mg/m2, Cmax): 3.38 µM and 893 ng/mL; Tmax (human, in vivo, 380 mg/m2, Tmax): 4.3 h; Clearance (human, in vivo, 430 mg/m2): 174 L/h; Tmax (human, in vivo, 430 mg/m2): 1.00 h; t1/2 (human, in vivo, 430 mg/m2): 2.49 h; AUC(0-t) (human, in vivo, 430 mg/m2, AUClast): 6.39 µM·h and 1690 ng·h/mL; Clearance (human, in vivo, 430 mg/m2, Clearance): 174 L/h; Vd (human, in vivo, 430 mg/m2, Vz): 661 L; half-life (human, in vivo, 430 mg/m2, t1/2): 2.49 h; Clearance (human, in vivo, 480 mg/m2): 237 L/h; AUC(0-t) (human, in vivo, 480 mg/m2, AUClast): 14.2 µM·h and 3760 ng·h/mL; Clearance (human, in vivo, 480 mg/m2, Clearance): 237 L/h; Cmax (human, in vivo, 480 mg/m2, Cmax): 4.64 µM and 1230 ng/mL; Tmax (human, in vivo, 480 mg/m2, Tmax): 0.5 h; Vd (human, in vivo, 480 mg/m2, Vz): 421 L; Cmax (human, in vivo, Cmax): > 270 ng/mL; AUC0_0-inf/D (human, in vivo, po): 5.49 ± 2.75 (ng/mL*h)/(mg/d); Clearance (human, in vivo, po): 235 ± 149 L/h; Clearance, 25% Percentile (human, in vivo, po): 181 L/h; Cmax/D (human, in vivo, po): 1.70 ± 1.18 (ng/mL)/(mg/d); Vz (human, in vivo, po): 644 ± 460 L; Vz, 25% Percentile (human, in vivo, po): 397 L; t½ (human, in vivo, po): 1.98 ± 0.96 h; Clearance, Mean (human, in vivo, po, 530 mg/m2): 408 L/h; Clearance, Median (human, in vivo, po, 530 mg/m2): 304 L/h; Vz, Maximum (human, in vivo, po, 530 mg/m2): 1330 L; Vz, Mean (human, in vivo, po, 530 mg/m2): 1008 L; Vz, Median (human, in vivo, po, 530 mg/m2): 1186 L; AUC(0-t) (human, in vivo, po, 530 mg/m2, AUClast, Median): 5.82 µM·h and 1540 ng·h/mL; Tmax (human, in vivo, po, 530 mg/m2, Tmax, Mean): 2.17 h; half-life (human, in vivo, po, 530 mg/m2, t1/2, Mean): 1.84 h; half-life (human, in vivo, po, 530 mg/m2, t1/2, Median): 1.46 h; AUClast, Median (human, in vivo, po, 580 mg/m2): 10.3 µM·h; Clearance, Maximum (human, in vivo, po, 580 mg/m2): 453 L/h; Clearance, Mean (human, in vivo, po, 580 mg/m2): 295 L/h; Clearance, Median (human, in vivo, po, 580 mg/m2): 211 L/h; Clearance, Minimum (human, in vivo, po, 580 mg/m2): 155 L/h; Cmax, Maximum (human, in vivo, po, 580 mg/m2): 1689 ng/mL; Cmax, Minimum (human, in vivo, po, 580 mg/m2): 315 ng/mL; Tmax, Maximum (human, in vivo, po, 580 mg/m2): 2.00 h; Tmax, Mean (human, in vivo, po, 580 mg/m2): 1.40 h; Vz, Maximum (human, in vivo, po, 580 mg/m2): 2135 L; Vz, Mean (human, in vivo, po, 580 mg/m2): 793 L; Vz, Median (human, in vivo, po, 580 mg/m2): 480 L; t1/2, Maximum (human, in vivo, po, 580 mg/m2): 3.30 h; t1/2, Minimum (human, in vivo, po, 580 mg/m2): 0.850 h; AUC(0-t) (human, in vivo, po, 580 mg/m2, AUClast, Mean): 11.3 µM·h; Cmax (human, in vivo, po, 580 mg/m2, Cmax, Mean): 4.33 µM and 1140 ng/mL; Cmax (human, in vivo, po, 580 mg/m2, Cmax, Median): 5.42 µM and 1430 ng/mL; half-life (human, in vivo, po, 580 mg/m2, t1/2, Mean): 1.78 h; half-life (human, in vivo, po, 580 mg/m2, t1/2, Median): 1.62 h; Tmax (human, in vivo, po, Tmax): 2.07 ± 1.37 h; Cmax (read-out: Cmax, Maximum, 530 mg/m2/d oral, plasma, maximum of 3 values): 2380 nM; Cmax (read-out: Cmax, Minimum, 530 mg/m2/d oral, plasma, minimum of 3 values): 1710 nM

From article PMC6902473 (Clinical Epigenetics, 2019)
